This data set in a line: activity coefficient (dimensionless); of the first substance listed, at infinite dilution; xn = mol fraction of the nth substance listed. Conditions: 101 kPa, Liquid, Chromatography, x1 = 0.

The values below come from the NIST ThermoML archive (doi:10.1016/j.jct.2013.01.005).

Numbers after ± are expanded uncertainties.

Turning to `CCC(C)(C)OC` [2-methoxy-2-methylbutane] + CCCCC[N+]1(C)CCCCC1.O=S(=O)([N-]S(=O)(=O)C(F)(F)F)C(F)(F)F, the activity coefficient is, setting by setting: (308.15 K) 2.44 ± 0.17; (318.15 K) 2.47 ± 0.17; (328.15 K) 2.5 ± 0.17; (338.15 K) 2.53 ± 0.17; (348.15 K) 2.57 ± 0.17; (358.15 K) 2.6 ± 0.18.

Regarding `CCCCCCCC` [octane] + CCCCCC[N+]1(C)CCCCC1.O=S(=O)([N-]S(=O)(=O)C(F)(F)F)C(F)(F)F, the activity coefficient amounted to 12.9 ± 0.9 (308.15 K); 12.7 ± 0.9 (318.15 K); 12.1 ± 0.8 (328.15 K); 11.8 ± 0.8 (338.15 K); 11.3 ± 0.8 (348.15 K); 10.9 ± 0.7 (358.15 K).

Take `C1=CCCCC1` [cyclohexene] + CCCCCC[N+]1(C)CCCCC1.O=S(=O)([N-]S(=O)(=O)C(F)(F)F)C(F)(F)F: the activity coefficient (308.15 K) was 3.07 ± 0.21; the activity coefficient (318.15 K) was found to be 3 ± 0.2; the activity coefficient (328.15 K) stood at 2.94 ± 0.2; the activity coefficient (338.15 K) worked out at 2.88 ± 0.2; the activity coefficient (348.15 K) worked out at 2.81 ± 0.19; the activity coefficient (358.15 K) was found to be 2.75 ± 0.19.

Turning to `CCCCC` [pentane] + CCCCCC[N+]1(C)CCCCC1.O=S(=O)([N-]S(=O)(=O)C(F)(F)F)C(F)(F)F, the activity coefficient reads like this: (308.15 K) 5.95 ± 0.41; (318.15 K) 5.73 ± 0.39; (328.15 K) 5.42 ± 0.37; (338.15 K) 5.3 ± 0.36; (348.15 K) 5.2 ± 0.35; (358.15 K) 4.95 ± 0.34.

As for `CCCCCCCCC` [nonane] + CCCCCC[N+]1(C)CCCCC1.O=S(=O)([N-]S(=O)(=O)C(F)(F)F)C(F)(F)F, the activity coefficient reads like this: (308.15 K) 16.9 ± 1.2; (318.15 K) 16.4 ± 1.1; (328.15 K) 15.7 ± 1.1; (338.15 K) 15.3 ± 1; (348.15 K) 14.6 ± 1; (358.15 K) 14.1 ± 1.

In the case of `C1CCCCC1` [cyclohexane] + CCCCC[N+]1(C)CCCCC1.O=S(=O)([N-]S(=O)(=O)C(F)(F)F)C(F)(F)F, the activity coefficient by setting is: (308.15 K) 6.4 ± 0.44; (318.15 K) 5.95 ± 0.41; (328.15 K) 5.64 ± 0.38; (338.15 K) 5.42 ± 0.37; (348.15 K) 5.13 ± 0.35; (358.15 K) 4.99 ± 0.34.

On to `C=CCCCC` [hex-1-ene] + CCCCCC[N+]1(C)CCCCC1.O=S(=O)([N-]S(=O)(=O)C(F)(F)F)C(F)(F)F, for which the activity coefficient by setting is: (308.15 K) 4.53 ± 0.31; (318.15 K) 4.45 ± 0.3; (328.15 K) 4.34 ± 0.3; (338.15 K) 4.28 ± 0.29; (348.15 K) 4.15 ± 0.28; (358.15 K) 4.06 ± 0.28.

With `CO` [methanol] + CCCCCC[N+]1(C)CCCCC1.O=S(=O)([N-]S(=O)(=O)C(F)(F)F)C(F)(F)F, the activity coefficient by setting is: (308.15 K) 1.51 ± 0.1; (318.15 K) 1.37 ± 0.09; (328.15 K) 1.26 ± 0.08; (338.15 K) 1.16 ± 0.07; (348.15 K) 1.08 ± 0.07; (358.15 K) 0.995 ± 0.062.

As to `CC(C)CC(C)(C)C` [2,2,4-trimethylpentane] + CCCCC[N+]1(C)CCCCC1.O=S(=O)([N-]S(=O)(=O)C(F)(F)F)C(F)(F)F, the activity coefficient is, setting by setting: (308.15 K) 13.4 ± 0.9; (318.15 K) 12.5 ± 0.9; (328.15 K) 11.8 ± 0.8; (338.15 K) 11.4 ± 0.8; (348.15 K) 10.9 ± 0.7; (358.15 K) 10.6 ± 0.7.

With `C1CCCCCCC1` [cyclooctane] + CCCCC[N+]1(C)CCCCC1.O=S(=O)([N-]S(=O)(=O)C(F)(F)F)C(F)(F)F, the activity coefficient amounted to 10.1 ± 0.7 (308.15 K); 9.58 ± 0.65 (318.15 K); 9.06 ± 0.62 (328.15 K); 8.6 ± 0.59 (338.15 K); 8.24 ± 0.56 (348.15 K); 7.8 ± 0.53 (358.15 K).

On to `Cc1ccccc1` [toluene] + CCCCC[N+]1(C)CCCCC1.O=S(=O)([N-]S(=O)(=O)C(F)(F)F)C(F)(F)F, for which the activity coefficient worked out at 0.91 ± 0.058 (308.15 K); 0.919 ± 0.058 (318.15 K); 0.955 ± 0.06 (328.15 K); 0.975 ± 0.061 (338.15 K); 1.01 ± 0.06 (348.15 K); 1.05 ± 0.07 (358.15 K).

Turning to `CC(C)=O` [acetone] + CCCCCC[N+]1(C)CCCCC1.O=S(=O)([N-]S(=O)(=O)C(F)(F)F)C(F)(F)F, the activity coefficient (308.15 K) amounted to 0.421 ± 0.035; the activity coefficient (318.15 K) was determined as 0.429 ± 0.035; the activity coefficient (328.15 K) came out at 0.436 ± 0.035; the activity coefficient (338.15 K) was 0.444 ± 0.036; the activity coefficient (348.15 K) was 0.455 ± 0.036; the activity coefficient (358.15 K) worked out at 0.46 ± 0.036.

Turning to `C=CCCCCCCCC` [1-decene] + CCCCCC[N+]1(C)CCCCC1.O=S(=O)([N-]S(=O)(=O)C(F)(F)F)C(F)(F)F, the activity coefficient (308.15 K) stood at 12.3 ± 0.8; the activity coefficient (318.15 K) amounted to 12.1 ± 0.8; the activity coefficient (328.15 K) turned out to be 12 ± 0.8; the activity coefficient (338.15 K) was 11.8 ± 0.8; the activity coefficient (348.15 K) was found to be 11.7 ± 0.8; the activity coefficient (358.15 K) came to 11.5 ± 0.8.

With `CCCCC(C)=O` [2-hexanone] + CCCCCC[N+]1(C)CCCCC1.O=S(=O)([N-]S(=O)(=O)C(F)(F)F)C(F)(F)F, the activity coefficient runs as follows: (308.15 K) 0.694 ± 0.047; (318.15 K) 0.706 ± 0.047; (328.15 K) 0.722 ± 0.048; (338.15 K) 0.74 ± 0.049; (348.15 K) 0.764 ± 0.05; (358.15 K) 0.784 ± 0.051.

Regarding `CCCCCO` [pentan-1-ol] + CCCCCC[N+]1(C)CCCCC1.O=S(=O)([N-]S(=O)(=O)C(F)(F)F)C(F)(F)F, the activity coefficient reads like this: (308.15 K) 2.44 ± 0.17; (318.15 K) 2.23 ± 0.15; (328.15 K) 2.05 ± 0.14; (338.15 K) 1.92 ± 0.13; (348.15 K) 1.8 ± 0.12; (358.15 K) 1.71 ± 0.11.

Consider `Cc1ccc(C)cc1` [1,4-dimethylbenzene] + CCCCCC[N+]1(C)CCCCC1.O=S(=O)([N-]S(=O)(=O)C(F)(F)F)C(F)(F)F, for which the activity coefficient reads like this: (308.15 K) 1.14 ± 0.07; (318.15 K) 1.17 ± 0.07; (328.15 K) 1.2 ± 0.08; (338.15 K) 1.24 ± 0.08; (348.15 K) 1.28 ± 0.08; (358.15 K) 1.3 ± 0.08.

Regarding `Cc1ccccc1C` [1,2-dimethylbenzene] + CCCCC[N+]1(C)CCCCC1.O=S(=O)([N-]S(=O)(=O)C(F)(F)F)C(F)(F)F, the activity coefficient runs as follows: (308.15 K) 1.06 ± 0.07; (318.15 K) 1.14 ± 0.07; (328.15 K) 1.16 ± 0.07; (338.15 K) 1.19 ± 0.08; (348.15 K) 1.24 ± 0.08; (358.15 K) 1.27 ± 0.08.

Turning to `CCCCCCC` [heptane] + CCCCC[N+]1(C)CCCCC1.O=S(=O)([N-]S(=O)(=O)C(F)(F)F)C(F)(F)F, the activity coefficient worked out at 13.6 ± 0.9 (308.15 K); 12.4 ± 0.8 (318.15 K); 11.8 ± 0.8 (328.15 K); 11.3 ± 0.8 (338.15 K); 10.8 ± 0.7 (348.15 K); 10.4 ± 0.7 (358.15 K).

As for `CCCCCCC` [heptane] + CCCCCC[N+]1(C)CCCCC1.O=S(=O)([N-]S(=O)(=O)C(F)(F)F)C(F)(F)F, the activity coefficient (308.15 K) came to 10.2 ± 0.7; the activity coefficient (318.15 K) is 9.81 ± 0.67; the activity coefficient (328.15 K) stood at 9.38 ± 0.64; the activity coefficient (338.15 K) turned out to be 8.99 ± 0.61; the activity coefficient (348.15 K) stood at 8.68 ± 0.59; the activity coefficient (358.15 K) amounted to 8.2 ± 0.56.
